Measured values published in US6107459A, “Technetium-99m labeled peptides for diagnostic imaging” (Diatide, Inc., priority 1995, dated 2000).
Read-outs that look alike come from different tables or passages of the source. Where a SMILES comes first, the peptide text is derived from it. Where no end group is shown, it is not given here. The star is where a group is joined. X1 = CC(C)(S)CNCCN(CCCCC(=O)*)CC(C)(C)S

Tests used:
[1] = test system: sites of infection (E. coli, left calf muscle); assay: Scintigraphic imaging and biodistribution of Tc-99m labeled peptides in E. coli-infected rabbits; type: in vivo, New Zealand white rabbits; details: for Infected Muscle (% ID/g): Tc-99m labeled peptide i.v. (≤150 μg, 2-10 mCi), 24 h after i.m. E. coli inoculation, tissue taken after final imaging, percent injected dose per gram tissue; for Blood (% ID/g) / Control Muscle (% ID/g): rabbit, in vivo, iv; for Ratio of Infected/Blood / Ratio of Infected/Control: ratio of % ID/g; for Ratio of Infected/Blood: infected muscle tissue versus blood; for Ratio of Infected/Control: infected versus non-infected muscle tissue
Procedure: (§1) After 24 h, the animals were sedated by i.m. injection of ketamine and xylazine, and then injected i.v. with Tc-99m labeled peptide (≤150 μg, 2-10 mCi). The animals were positioned supine in the field of view of a gamma camera (LEAP collimator/photopeaked for Tc-99m) and imaged over the first hour post-injection, and then at approximately 1 h intervals over the next three hours post injection. Animals were allowed to recover between image acquisitions and re-anesthetized as needed.
(§2) Upon completion of the final imaging, each animal was sacrificed by overdose of phenobarbital i.v. and dissected to obtain samples of blood and of infected and control muscle tissue. The tissue samples were weighed, and along with a standard amount of the injected dose, were counted using a gamma counter, and the percent injected dose (per gram of tissue) remaining in the tissues was determined. Ratios of percent of injected dose per gram of infected versus non-infected muscle tissue, and of infected muscle tissue versus blood, were calculated for each peptide. Scintiphotos of whole body and leg images of a rabbit injected with a Tc-99m labeled reagent of the invention, having the formula

[2] = as above; type: in vivo, New Zealand white rabbits; details: rabbit, in vivo, iv
Procedure: as §1, §2

| Molecule | Infected Muscle (% ID/g) [1] [% ID/g] | Scintigraphic images (FIG. 1): localization of radioactivity, infected leg versus contralateral leg ([1]; gamma camera, whole body and leg images of a rabbit injected with the Tc-99m labeled reagent) | Blood (% ID/g) [1] [% ID/g] | Control Muscle (% ID/g) [1] [% ID/g] | Ratio of Infected/Blood [1] | Ratio of Infected/Control [1] | tissue uptake ([2]; Blood (% ID/g)) [%ID/g] | tissue uptake ([2]; Control Muscle (% ID/g)) [%ID/g] | tissue uptake ([2]; Tc-99m labeled peptide i.v. (≤150 μg, 2-10 mCi), 24 h after i.m. E. coli inoculation, tissue taken after final imaging, percent injected dose per gram tissue, read-out: Infected Muscle (% ID/g)) [%ID/g] |
| --- | --- | --- | --- | --- | --- | --- | --- | --- | --- |
| Ac.KKKKKCAcm GCAcm GGPLYKKIIKKLLES: Tc-99m labeled platelet factor 4-derived peptide reagent | 0.0061 | much greater extent of localization of radioactivity in the leg bearing the experimentallly-infected site compared to the non-infected contralateral leg | 0.006 | 0.0019 | 0.93 | 5.60 | – | – | – |
| CC[C@H](C)[C@H](NC(=O)[C@H](CCCCN)NC(=O)[C@H](CCCCN)NC(=O)[C@H](Cc1ccc(O)cc1)NC(=O)[C@H](CC(C)C)NC(=O)[C@@H]1CCCN1C(=O)CNC(=O)CNC(=O)CCCCN(CCNCC(C)(C)S)CC(C)(C)S)C(=O)N[C@H](C(=O)N[C@@H](CCCCN)C(=O)N[C@@H](CCCCN)C(=O)N[C@@H](CC(C)C)C(=O)N[C@@H](CC(C)C)C(=O)N[C@@H](CCC(=O)O)C(=O)N[C@@H](CO)C(=O)O)[C@@H](C)CC [[BAT].GGPLYKKIIKKLLES] (X1-GGPLYKKIIKKLLES-OH; N-terminus and C-terminus assumed) | – | – | – | – | 0.50 | 7.00 | 0.004 | 0.0003 | 0.0021 |
| Ac.CGGGPLYKKIIKKLLES: Tc-99m labeled platelet factor 4-derived peptide reagent (Ac-CGGGPLYKKIIKKLLES; also: Tc-99m labeled) | 0.0235 | – | 0.032 | 0.0050 | 0.74 | 4.70 | – | – | – |
| (Ac.CCAcm GCAcm PLYKKIIKKLLES)2 BSME: PF4-derived peptide dimer linked by bis-succinimidylmethylether, Cys(Acm)-Gly-Cys(Acm) Tc-99m binding moiety | 0.0082 | – | 0.010 | 0.0011 | 0.84 | 7.45 | – | – | – |
